Results as given in patent publication US8574563B2 (Bristol-Myers Squibb Company, priority 2006, dated 2013).
Read-outs that look alike come from different tables or passages of the source.

Test system: HCV 1b-377-neo replicon cells
Experiment: HCV replicon assay, HCV 1b-377-neo replicon cells (1b FRET)
Format: cell-based, Hepatitis C virus genotype 1b
Conditions: HCV 1b-377-neo replicon cells, HCV 1b genotype, read-out: EC50 range against HCV 1b (Table 2, Range)
Outline: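 Compounds were tested in genotype 1b subgenomic replicon cells carrying a neomycin marker, alongside a matched replicon line with an NS5A Y2065H substitution that confers resistance to a reference NS5A inhibitor.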

SMILES	EC50 (Hepatitis C virus) [nM]	EC50 [nM]
COC(=O)N[C@@H](C(=O)N1CCC[C@H]1c1ncc(-c2ccc(-c3ccc(-c4cnc([C@@H]5CCCN5C(=O)CN5CCN(C)CC5)[nH]4)cc3)cc2)[nH]1)c1ccccc1 [Example 57, methyl ((1R)-2-((2S)-2-(5-(4′-(2-((2S)-1-((4-methyl-1-piperazinyl)acetyl)-2-pyrrolidinyl)-1H-imidazol-5-yl)-4-biphenylyl)-1H-imidazol-2-yl)-1-pyrrolidinyl)-2-oxo-1-phenylethyl)carbamate]	0.001 to 0.999	–
COC(=O)NC(C(=O)N1CCCC1c1nc(-c2ccc(-c3ccc(-c4cnc(C5CCCN5C(=O)CN5CCCC5)[nH]4)cc3)cc2)c[nH]1)c1ccccc1 [Example 58, methyl ((1R)-2-oxo-1-phenyl-2-((2S)-2-(5-(4′-(2-((2S)-1-(1-pyrrolidinylacetyl)-2-pyrrolidinyl)-1H-imidazol-5-yl)-4-biphenylyl)-1H-imidazol-2-yl)-1-pyrrolidinyl)ethyl)carbamate]	–	0.001 to 0.999
COC(=O)N[C@@H](C(=O)N1CCC[C@H]1c1ncc(-c2ccc(-c3ccc(-c4cnc([C@@H]5CCCN5C(=O)[C@@H]5CCCO5)[nH]4)cc3)cc2)[nH]1)c1ccccc1 [Example 59, methyl ((1R)-2-oxo-1-phenyl-2-((2S)-2-(5-(4′-(2-((2S)-1-((2S)-tetrahydro-2-furanylcarbonyl)-2-pyrrolidinyl)-1H-imidazol-5-yl)-4-biphenylyl)-1H-imidazol-2-yl)-1-pyrrolidinyl)ethyl)carbamate]	0.001 to 0.999	–
COC(=O)N[C@@H](C(=O)N1CCC[C@H]1c1ncc(-c2ccc(-c3ccc(-c4cnc([C@@H]5CCCN5C(=O)C5(O)CC5)[nH]4)cc3)cc2)[nH]1)c1ccccc1 [Example 60, methyl ((1R)-2-((2S)-2-(5-(4′-(2-((2S)-1-((1-hydroxycyclopropyl)carbonyl)-2-pyrrolidinyl)-1H-imidazol-5-yl)-4-biphenylyl)-1H-imidazol-2-yl)-1-pyrrolidinyl)-2-oxo-1-phenylethyl)carbamate]	0.001 to 0.999	–
COC(=O)N[C@@H](C(=O)N1CCC[C@H]1c1ncc(-c2ccc(-c3ccc(-c4cnc([C@@H]5CCCN5C(=O)Cc5cnc[nH]5)[nH]4)cc3)cc2)[nH]1)c1ccccc1 [Example 61, methyl ((1R)-2-((2S)-2-(5-(4′-(2-((2S)-1-(1H-imidazol-5-ylacetyl)-2-pyrrolidinyl)-1H-imidazol-5-yl)-4-biphenylyl)-1H-imidazol-2-yl)-1-pyrrolidinyl)-2-oxo-1-phenylethyl)carbamate]	0.001 to 0.999	–
COC(=O)N[C@@H](C(=O)N1CCC[C@H]1c1ncc(-c2ccc(-c3ccc(-c4cnc([C@@H]5CCCN5C(=O)Cc5cn(C)cn5)[nH]4)cc3)cc2)[nH]1)c1ccccc1 [Example 62, methyl ((1R)-2-((2S)-2-(5-(4′-(2-((2S)-1-((1-methyl-1H-imidazol-4-yl)acetyl)-2-pyrrolidinyl)-1H-imidazol-5-yl)-4-biphenylyl)-1H-imidazol-2-yl)-1-pyrrolidinyl)-2-oxo-1-phenylethyl)carbamate]	0.001 to 0.999	–
COC(=O)N[C@@H](C(=O)N1CCC[C@H]1c1ncc(-c2ccc(-c3ccc(-c4cnc([C@@H]5CCCN5C(=O)c5ncc[nH]5)[nH]4)cc3)cc2)[nH]1)c1ccccc1 [Example 63, methyl ((1R)-2-((2S)-2-(5-(4′-(2-((2S)-1-(1H-imidazol-2-ylcarbonyl)-2-pyrrolidinyl)-1H-imidazol-5-yl)-4-biphenylyl)-1H-imidazol-2-yl)-1-pyrrolidinyl)-2-oxo-1-phenylethyl)carbamate]	0.001 to 0.999	–
COC(=O)N[C@@H](C(=O)N1CCC[C@H]1c1ncc(-c2ccc(-c3ccc(-c4cnc([C@@H]5CCCN5C(=O)C(c5ccccc5)N5CCC(O)CC5)[nH]4)cc3)cc2)[nH]1)c1ccccc1 (stereo partly drawn) [Example 64, methyl ((1R)-2-((2S)-2-(5-(4′-(2-((2S)-1-((4-hydroxy-1-piperidinyl)(phenyl)acetyl)-2-pyrrolidinyl)-1H-imidazol-5-yl)-4-biphenylyl)-1H-imidazol-2-yl)-1-pyrrolidinyl)-2-oxo-1-phenylethyl)carbamate]	0.001 to 0.999	–
COC(=O)N[C@@H](C(=O)N1CCC[C@H]1c1ncc(-c2ccc(-c3ccc(-c4cnc([C@@H]5CCCN5C(=O)Cc5nnn[nH]5)[nH]4)cc3)cc2)[nH]1)c1ccccc1 [Example 65, methyl ((1R)-2-oxo-1-phenyl-2-((2S)-2-(5-(4′-(2-((2S)-1-(1H-tetrazol-5-ylacetyl)-2-pyrrolidinyl)-1H-imidazol-5-yl)-4-biphenylyl)-1H-imidazol-2-yl)-1-pyrrolidinyl)ethyl)carbamate]	1 to 99	–
COC(=O)N[C@@H](C(=O)N1CCC[C@H]1c1ncc(-c2ccc(-c3ccc(-c4cnc([C@@H]5CCCN5C(=O)c5ccccn5)[nH]4)cc3)cc2)[nH]1)c1ccccc1 [Example 67, methyl ((1R)-2-oxo-1-phenyl-2-((2S)-2-(5-(4′-(2-((2S)-1-(2-pyridinylcarbonyl)-2-pyrrolidinyl)-1H-imidazol-5-yl)-4-biphenylyl)-1H-imidazol-2-yl)-1-pyrrolidinyl)ethyl)carabamate]	–	0.001 to 0.999
COC(=O)N[C@@H](C(=O)N1CCC[C@H]1c1ncc(-c2ccc(-c3ccc(-c4cnc([C@@H]5CCCN5C(=O)c5cccnc5)[nH]4)cc3)cc2)[nH]1)c1ccccc1 [Example 68, methyl ((1R)-2-oxo-1-phenyl-2-((2S)-2-(5-(4′-(2-((2S)-1-(3-pyridinylcarbonyl)-2-pyrrolidinyl)-1H-imidazol-5-yl)-4-biphenylyl)-1H-imidazol-2-yl)-1-pyrrolidinyl)ethyl)carbamate]	0.001 to 0.999	–
COC(=O)N[C@@H](C(=O)N1CCC[C@H]1c1ncc(-c2ccc(-c3ccc(-c4cnc([C@@H]5CCCN5C(=O)c5ccncc5)[nH]4)cc3)cc2)[nH]1)c1ccccc1 [Example 69, methyl ((1R)-2-((2S)-2-(5-(4′-(2-((2S)-1-isonicotinoyl-2-pyrrolidinyl)-1H-imidazol-5-yl)-4-biphenylyl)-1H-imidaozl-2-yl)-1-pyrrolidinyl)-2-oxo-1-phenylethyl)carbamate]	–	0.001 to 0.999
COC(=O)N[C@@H](C(=O)N1CCC[C@H]1c1ncc(-c2ccc(-c3ccc(-c4cnc([C@@H]5CCCN5C(=O)[C@@H]5C[C@@H](F)CN5C)[nH]4)cc3)cc2)[nH]1)c1ccccc1 [Example 70, methyl ((1R)-2-((2S)-2-(5-(4′-(2-((2S)-1-((4R)-4-fluoro-1-methyl-L-prolyl)-2-pyrrolidinyl)-1H-imidazol-5-yl)-4-biphenylyl)-1H-imidazol-2-yl)-1-pyrrolidinyl)-2-oxo-1-phenylethyl)carbamate]	1 to 99	–
COC(=O)N[C@@H](C(=O)N1CCC[C@H]1c1ncc(-c2ccc(-c3ccc(-c4cnc([C@@H]5CCCN5C(=O)c5ncco5)[nH]4)cc3)cc2)[nH]1)c1ccccc1 [Example 71, methyl ((1R)-2-((2S)-2-(5-(4′-(2-((2S)-1-(1,3-oxazol-2-ylcarbonyl)-2-pyrrolidinyl)-1H-imidazol-5-yl)-4-biphenylyl)-1H-imidazol-2-yl)-1-pyrrolidinyl)-2-oxo-1-phenylethyl)carbamate]	0.001 to 0.999	–
COC(=O)N[C@@H](C(=O)N1CCC[C@H]1c1ncc(-c2ccc(-c3ccc(-c4cnc([C@@H]5CCCN5C(=O)c5cnco5)[nH]4)cc3)cc2)[nH]1)c1ccccc1 [Example 72, methyl ((1R)-2-((2S)-2-(5-(4′-(2-((2S)-1-(1,3-oxazol-5-ylcarbonyl)-2-pyrrolidinyl)-1H-imidazol-5-yl)-4-biphenylyl)-1H-imidazol-2-yl)-1-pyrrolidinyl)-2-oxo-1-phenylethy)carbamate]	–	1 to 99
